# Experimental data taken from patent US6683230B1, “Hybrid seed production” (Syngenta Limited, priority 1998, dated 2004).
# Read-outs that look alike come from different tables or passages of the source.
# How the values were obtained:
# lac repressor = conditions: tobacco protoplasts and stable transformants; cited from earlier work
# [1] = system: safener induced GST-27 promoter; test: Reversal of sterility in GST-27-barstar maize WU25 by safener; assay type: in vivo
# Text: The corn transformation vector Zm/RMS14 (described above) carries a barstar gene fused to the safener induced GST-27 promoter. WU25 was shown by PCR to contain this gene fusion. […] There was no effect of the safener on the size or fertility of tassels on non-transgenic fertile plants. […] The resumption of microspore development appears to be linked to the barstar inhibition of barnase thus overcoming the ablation of tapetal cells. […] In contrast, the anthers from sterile plants were collapsed.
# The same promoter fragment was fused to barnase to generate the corn transformation vector ZM/RMS14 (FIG. 30). This fusion also contained an out of frame barstar gene with a functional bacterial promoter to provide protection against barnase during the cloning steps. Transgenic maize plants were obtained and several progressed for further analysis. One plant WU25 in particular was studied in some detail by analysing progeny derived from crosses with pollen from a fully fertile plant. All progeny inheriting the transgene as assessed by PCR and leaf paint to detect the pat gene were completely sterile, whereas progeny lacking the transgene were fully fertile. […] In all other respects sterile plants were indistinguishable from their fertile non-transgenic siblings.
# AlcA promoter [2] = conditions: 0.1% (v/v) ethanol in medium, 3 weeks
# Experimental: (§1) Flower material was ground in 2-300 μl of extraction buffer (100 mM sodium phosphate buffer pH 7, 10 mM EDTA, 0.1% Triton X-100, 1% Sarcosyl, 10 mM b-mercaptoethanol). Samples were spun in a microcentrifuge for 15 min and 5 μl of the supernatant was used for Bradford protein assays with BSA as standard. 20 μl was diluted 1 in 5 with extraction buffer and 400 μl of assay buffer (same for extraction buffer except contains 1 mM 4-MUG and 20% methanol). 100 μl was taken (T0 sample) and added to 900 μl of stop buffer (0.2M sodium carbonate) and the rest was incubated at 37° C. for two hours before taking a further 100 μl (T2 samples) to be added to 900 μl stop buffer.
# (§2) Florescence of samples was measured in a spectrophotometer and GUS was represented as nM 4M U per mg protein per hour.
# AlcA promoter [3] = system: AlcA promoter
# Experimental: as §1, §2
# (§3) For the GUS staining, the protocol of Blume and Grierson (1997) was used.
# AlcA promoter [4] = system: AlcA promoter; remark: listed apart in the source
# Text: 1) Oilseed rape (OSR) AlcA-GUS plants were root drenched with 250m1 of either water, 1% or 2% ethanol both on day 0 and day 1. Flower samples from these plants were then taken two days after the first induction.
# The first two bars in each section represent uninduced anther and uninduced stigma/style GUS levels respectively. Each bar represents three replicates with each replicate containing anthers from three different flowers or stigma/styles from eight different flowers or ovaries from six different flowers.
# 2) Oilseed rape Aic-GUS flowers were subjected to GUS staining following induction with ethanol.
# as §1, §2, §3
# AlcA promoter [5] = conditions: ethanol vapour, two days after induction
# Text: Alc-GUS tomoato flowers were induced using ethanol vapour as described above for tobacco flowers. Two days after induction, anthers and pollen were stained to detect GUS expression.
# as §3
# AlcA promoter [6] = conditions: ethanol vapour, 2-3 days
# Experimental: Scutellum tissue is bombarded with pUIRN.AGS and the tissue exposed to ethanol vapour. […] Transgenic Alc-GUS plants obtained are grown to maturity and seed harvested, inducible GUS expression is determined on the progeny plants in the same way as described above for rice.
# as §3
# AlcA promoter [7] = system: AlcA promoter; remark: listed apart in the source
# AlcA promoter [8] = conditions: after induction with ethanol
smiles,measurement,setting,value
CC(C)S[C@@H]1O[C@H](CO)[C@H](O)[C@H](O)[C@H]1O [IPTG],repression of GUS expression by lac repressor,lac repressor,repression can be relieved
CC1CN(C(=O)C(Cl)Cl)C(C)(C)O1 (centres unmarked) [R-29148],microsporogenesis,[1]; extended treatment with safener,anthers filled with immature post-mitotic pollen
same,microspore development and tassel size,"[1]; foliar application, field grown plants",A similar effect was seen
same,size or fertility of tassels,[1]; non-transgenic fertile plants,no effect
same,microspore development in anthers,"[1]; root drench, glass house",microspore development was observed
same,reversal of sterility,"[1]; root drench, glass house grown plants",Reversal of sterility was demonstrated
same,tassel size,[1]; treated vs untreated transgenic plants,increased tassel size relative to untreated plants
CCO [ethanol],GUS levels in callus,AlcA promoter [2],levels can be increased with the addition of ethanol
same,GUS in anthers,"AlcA promoter [3]; cut flower stems in 1%, 2% or 5% ethanol, two days",induced by ethanol in the anthers at levels above those seen in the water treated flowers
same,GUS staining of pistils,"AlcA promoter [3]; root drench 250 ml 5% ethanol, two days",induction of GUS in the pistils
same,GUS in anthers,"AlcA promoter [3]; vapour from 50 ml of 5% ethanol in sealed bag, 3 days",higher levels of GUS
same,"GUS levels, all tissues examined",AlcA promoter [4]; 2% ethanol root drench,increase in GUS from both uninduced levels and from the water-treated control plant
same,GUS staining of pistils,AlcA promoter [4]; 5% ethanol treated plant vs water-treated,induction of GUS in the female tissues
same,GUS staining of whole inflorescence,"AlcA promoter [4]; cut flower stem in 5% ethanol, two days","Blue staining is apparent in the filaments, sepals, petals and the stigma/style regions of the flower"
same,GUS staining of pistil sections,"AlcA promoter [4]; root drench 2% ethanol, two days",induction of GUS throughout the pistil region
same,GUS levels in floral tissues,"AlcA promoter [4]; root drench 250 ml 1% or 2% ethanol day 0 and day 1, sampled two days after first induction",increase in GUS levels in floral tissues
same,GUS staining of flower,AlcA promoter [4]; two days after root drench with 250 ml of 5% ethanol,reporter gene induction in the stigma/style region as well as the filaments
same,GUS staining of anthers and pollen,AlcA promoter [5],blue staining was observed in both tissues
same,GUS staining of bombarded scutellum tissue,AlcA promoter [6],numerous blue spots are seen
same,concentration at which induction of GUS expression was observed,AlcA promoter [7]; AlcA promoter,7 ng/100 ml air
same,toxicity to operators and environment,AlcA promoter [7]; in vivo,non-toxic to operators and to the environment
same,concentration at which the inducer is effective,"AlcA promoter [7]; root drench, aqueous spray or gas",1%
same,reporter gene (CAT) levels in floral tissues,AlcA promoter [8],increase in reporter gene levels in floral tissues
